Data on 37 compounds can be found in US20190053492A1, “SUBSTITUTED PYRIDINE COMPOUNDS AS PESTICIDES” (Bayer CropScience Aktiengesellschaft, priority 2016, published 2019).

Each structure is given as a SMILES string. Like-named read-outs stand apart in the source and are kept apart here.

Series [1] is described as follows: log P by HPLC on reversed-phase column (C 18), EEC Directive 79/831 Annex V.A8. It is filed as physicochemical. To be noted: 55° C.; for LOGP_HCOOH: log P (HCOOH); for chromatographic logP: reversed-phase HPLC column (C 18). On the procedure: Temperature: 55° C. […] Called log P (HCOOH) in the table. […] Called log P (neutral) in the table.
For series [2], the system named is Spodoptera frugiperda. The series can be described thus: Spodoptera frugiperda spray test. To be noted: application rate 500 g/ha, after 7 days, maize leaf discs. The series is classed as in vivo. On the procedure: Spodoptera frugiperda—Spray Test
Solvent: 78.0 parts by weight of acetone • • 1.5 parts by weight of dimethylformamide
Emulsifier: alkylaryl polyglycol ether
To produce a suitable active ingredient formulation, 1 part by weight of active ingredient is dissolved with the specified parts by weight of solvent and made up with water containing an emulsifier concentration of 1000 ppm until the desired concentration is attained. To produce further test concentrations, the formulation is diluted with emulsifier-containing water.
Leaf discs of maize (Zea mays) are sprayed with an active ingredient formulation of the desired concentration and, after drying, populated with caterpillars of the armyworm (Spodoptera frugiperda).
After 7 days, the efficacy in % is determined. 100% means that all the caterpillars have been killed; 0% means that no caterpillar has been killed.

Setting [3] is: acidic range at pH 2.7, 0.1% aqueous formic acid and acetonitrile, HPLC on reversed-phase column (C 18).
The mark [4] stands for this setting: log P, neutral range, HPLC on reversed-phase column (C 18).
[5] abbreviates: pH 2.7, LC-MS acidic range, pH 2.7, 0.1% formic acid/acetonitrile, read-out: log P (acidic) / log P (HCOOH).
Where [6] appears, read: pH 7.8, LC-MS neutral range, pH 7.8, ammonium hydrogencarbonate/acetonitrile, read-out: log P (neutral).
The mark [7] stands for this setting: acidic range pH 2.7, 0.1% aqueous formic acid and acetonitrile, reversed-phase column (C 18).

In series [1] (setting [3]), `CC(NC(=O)c1cc(-c2ccc(OC(F)(F)F)cc2)cc(NC(=O)C2CC2)n1)c1ccc(C#N)cc1` (single isomer, unassigned) [Example I-219] came in with an LOGP_HCOOH of 4.17. The same compound displayed an LOGP_NEUTRAL in series [1] (setting [4]) of 4.02. In addition, the “efficacy (caterpillars killed)” value in series [2] is on record as 83%. As to `O=C(O)c1cc(-c2ccc(OC(F)(F)F)cc2)cc(NC(=O)C2CC2)n1` [6-[(Cyclopropylcarbonyl)amino]-4-[4-(trifluoromethoxy)phenyl]pyridine-2-carboxylic acid], the chromatographic logP was determined as 2.72 in series [1] (setting [5]) and 1.25 in series [1] (setting [6]). `N#Cc1cccc(CNC(=O)c2cc(-c3ccc(F)cc3)cc(NC(=O)C3CC3)n2)c1` [Example I-001] registered an LOGP_HCOOH in series [1] (setting [7]) of 3.26.

Compound `O=C(NCc1cccc(F)c1)c1cc(-c2ccc(C(F)(F)F)cc2)cc(NC(=O)C2CC2)n1` [Example I-003] registered an LOGP_HCOOH in series [1] (setting [7]) of 4.24. Moreover, the “efficacy (caterpillars killed)” value in series [2] was 83%.

With `O=C(NCc1cccc(Cl)c1)c1cc(-c2ccc(C(F)(F)F)cc2)cc(NC(=O)C2CC2)n1` [Example I-006], in series [1] (setting [7]), the LOGP_HCOOH turned out to be 4.49. This compound also showed an LOGP_NEUTRAL in series [1] (setting [4]) of 4.43. For the same compound, in series [2], the “efficacy (caterpillars killed)” value is given as 100%. In the same order, the values of `O=C(NCc1ccc(Cl)cc1Cl)c1cc(-c2ccc(C(F)(F)F)cc2)cc(NC(=O)C2CC2)n1` [Example I-010] are 5.00, 4.89 and 100%.

In series [1] (setting [7]), `CC(C)C(=O)Nc1cc(-c2ccc(C(F)(F)F)cc2)cc(C(=O)NCc2ccc(Cl)nc2)n1` [Example I-014] displayed an LOGP_HCOOH of 3.88. The LOGP_NEUTRAL in series [1] (setting [4]) turned out to be 3.81. Moreover, the “efficacy (caterpillars killed)” value in series [2] came out at 80%. `N#Cc1ccc(CNC(=O)c2cc(-c3ccc(C(F)(F)F)cc3)cc(NC(=O)c3ccc(Cl)cc3)n2)cc1` [Example I-023]: the LOGP_HCOOH in series [1] (setting [7]) is 4.77. This compound had an LOGP_NEUTRAL in series [1] (setting [4]) of 4.66. For the same compound, in series [2], the “efficacy (caterpillars killed)” value was 83%. For `N#Cc1ccc(CNC(=O)c2cc(-c3ccc(OC(F)F)cc3)cc(NC(=O)C3CC3)n2)cc1` [Example I-029], in that order: 3.28, 3.21 and 83%.

Regarding `CC(C)CNC(=O)c1cc(-c2ccc(C(F)(F)F)cc2)cc(NC(=O)C2CC2)n1` [Example I-032], the LOGP_HCOOH in series [1] (setting [7]) came out at 4.06. The LOGP_NEUTRAL in series [1] (setting [4]) is recorded as 3.98. Moreover, the “efficacy (caterpillars killed)” value in series [2] was 100%. In turn, `CC(C)C(=O)Nc1cc(-c2ccc(C(F)(F)F)cc2)cc(C(=O)NCc2cc(F)c(C#N)c(F)c2)n1` [Example I-072] returned an LOGP_HCOOH in series [1] (setting [7]) of 4.23. This compound showed an LOGP_NEUTRAL in series [1] (setting [4]) of 4.04.

Take `O=C(NC1CCCCC1)c1cc(-c2ccc(OC(F)(F)F)cc2)cc(NC(=O)C2CC2)n1` [Example I-168]: in series [1] (setting [3]), the LOGP_HCOOH amounted to 4.74. This compound had an LOGP_NEUTRAL in series [1] (setting [4]) of 4.57. In series [1] (setting [3]), `N#Cc1ccc(CNC(=O)c2cc(-c3ccc(OC(F)=C(F)F)cc3)cc(NC(=O)C3CC3)n2)cc1` [Example I-171] had an LOGP_HCOOH of 3.96. In addition, the LOGP_NEUTRAL in series [1] (setting [4]) amounted to 3.82. `CON(C)C(=O)c1cc(-c2ccc(OC(F)(F)F)cc2)cc(NC(=O)C2CC2)n1` [Example I-183] displayed an LOGP_HCOOH in series [1] (setting [3]) of 3.22. Besides, in series [1] (setting [4]), the LOGP_NEUTRAL turned out to be 3.18.

As to `N#CC1CCN(C(=O)c2cc(-c3ccc(OC(F)(F)F)cc3)cc(NC(=O)C3CC3)n2)CC1` [Example I-199], the LOGP_HCOOH in series [1] (setting [3]) is reported as 3.21. Compound `N#Cc1ccc(CNC(=O)c2cc(-c3ccc(OC(F)(F)F)cc3)cc(NC(=O)C3(C4CC4)CC3)n2)cc1` [Example I-203] yielded an LOGP_NEUTRAL in series [1] (setting [4]) of 3.32. Take `N#Cc1ccc(CNC(=O)c2cc(-c3ccc(C(F)(F)C(F)(F)F)c(F)c3Cl)cc(NC(=O)C3CC3)n2)cc1` [Example I-266]: the LOGP_HCOOH in series [1] (setting [7]) was 4.34. Still for that read-out and setting: the figure for `Cc1cc(-c2cc(NC(=O)C3CC3)nc(C(=O)NCc3ccc(C#N)cc3)c2)cc(F)c1C(F)(F)C(F)(F)F` [Example I-267] is 4.45; for `N#Cc1ccc(CNC(=O)c2cc(-c3cc(F)c(C(F)(F)C(F)(F)F)cc3F)cc(NC(=O)C3CC3)n2)cc1` [Example I-275] it is 4.11. On to `N#Cc1ccc(CNC(=O)c2cc(-c3cc(F)c(C(F)(F)C(F)(F)F)c(Cl)c3)cc(NC(=O)C3CC3)n2)cc1` [Example I-278], for which, in series [1] (setting [7]), the LOGP_HCOOH is on record as 4.67. The same compound registered an LOGP_NEUTRAL in series [1] (log P (neutral), HPLC reversed-phase column (C 18)) of 4.52. `N#Cc1ccc(CNC(=O)c2cc(B(O)O)cc(NC(=O)C3CC3)n2)cc1` [Example X-1b, {2-[(4-Cyanobenzyl)carbamoyl]-6-[(cyclopropylcarbonyl)amino]pyridin-4-yl}boric acid]: the figures for the chromatographic logP in series [1] (setting [5]) and in series [1] (setting [6]) were 1.58 and 1.25, respectively. For the compound `FC(F)(F)Oc1ccc(-c2cc(Cl)nc(Cl)c2)cc1` [XIV-1, 2,6-Dichloro-4-[4-(trifluoromethoxy)phenyl]pyridine], the chromatographic logP in series [1] (setting [5]) turned out to be 4.63; in series [1] (setting [6]), 4.62. Regarding `Fc1cc(-c2cc(Cl)nc(Cl)c2)ccc1C(F)(F)C(F)(F)F` [XIV-2, 2,6-Dichloro-4-[3-fluoro-4-(pentafluoroethyl)phenyl]pyridine], the chromatographic logP worked out at 4.92 in series [1] (setting [5]) and 4.97 in series [1] (setting [6]).

As to `Nc1cc(-c2ccc(Cl)cc2)cc(C(=O)O)n1` [XIX-1, 6-Amino-4-(4-chlorophenyl)pyridine-2-carboxylic acid], in series [1] (setting [5]), the chromatographic logP was 1.02.

As to `C=Cc1cc(-c2ccc(OC(F)(F)F)cc2)cc(Cl)n1` [XV-1, 2-Chloro-4-[4-(trifluoromethoxy)phenyl]-6-vinylpyridine], the chromatographic logP in series [1] (setting [5]) turned out to be 4.77; in series [1] (setting [6]), 4.72. In the same order, the values of `O=C(O)c1cc(-c2ccc(OC(F)(F)F)cc2)cc(Cl)n1` [XVI-1, 6-Chloro-4-[4-(trifluoromethoxy)phenyl]pyridine-2-carboxylic acid] are 3 and 1.17. For `N#Cc1ccc(CNC(=O)c2cc(-c3ccc(OC(F)(F)F)cc3)cc(Cl)n2)cc1` [XVII-1, 6-Chloro-N-(4-cyanobenzyl)-4-[4-(trifluoromethoxy)phenyl]pyridine-2-carboxamide], in that order: 4.23 and 4.19. For `CNc1cc(-c2ccc(OC(F)(F)F)cc2)cc(C(=O)NCc2ccc(C#N)cc2)n1` [XVIII-1, N-(4-Cyanobenzyl)-6-(methylamino)-4-[4-(trifluoromethoxy)phenyl]pyridine-2-carboxamide], in that order: 3.63 and 3.63.

Take `N#Cc1ccc(CNC(=O)c2cc(-c3ccc(Cl)cc3)cc(N)n2)cc1` [XX-1, 6-Amino-4-(4-chlorophenyl)-N-(4-cyanobenzyl)pyridine-2-carboxamide]: the chromatographic logP in series [1] (setting [6]) was 2.82. On the same count and under the same terms, the figure for `CN(C(=O)c1cc(-c2ccc(C(F)(F)F)cc2)cc(N)n1)C1CC1` [XX-2, 6-Amino-N-cyclopropyl-N-methyl-4-[4-(trifluoromethyl)phenyl]pyridine-2-carboxamide] is 2.4; for `N#Cc1ccc(CNC(=O)c2cc(-c3ccc(C(F)(F)F)cc3)cc(N)n2)cc1F` [XX-3, 6-Amino-N-(4-cyano-3-fluorobenzyl)-4-[4-(trifluoromethyl)phenyl]pyridine-2-carboxamide] it is 3.19. Turning to `Nc1cc(-c2ccc(C(F)(F)C(F)(F)F)c(F)c2)cc(Cl)n1` [XXI-1, 6-Chloro-4-[3-fluoro-4-(pentafluoroethyl)phenyl]pyridin-2-amine], the chromatographic logP in series [1] (setting [5]) was 3.85; in series [1] (setting [6]), 3.83. In the same order, the values of `O=C(Nc1cc(-c2ccc(C(F)(F)C(F)(F)F)c(F)c2)cc(Cl)n1)C1CC1` [XXII-1, N-{6-Chloro-4-[3-fluoro-4-(pentafluoroethyl)phenyl]pyridin-2-yl}cyclopropanecarboxamide] are 4.76 and 4.64. Take `NC(=O)c1cc(-c2ccc(C(F)(F)C(F)(F)F)c(F)c2)cc(NC(=O)C2CC2)n1` [XXIII-1, 6-[(Cyclopropylcarbonyl)amino]-4-[3-fluoro-4-(pentafluoroethyl)phenyl]pyridine-2-carboxamide]: the chromatographic logP in series [1] (setting [5]) is 3.18; in series [1] (setting [6]), 3.17. In the same order, the values of `COC(=O)c1cc(-c2ccc(OC(F)(F)F)cc2)cc(NC(=O)C2CC2)n1` [XXIII-2, Methyl 6-[(cyclopropylcarbonyl)amino]-4-[4-(trifluoromethoxy)phenyl]pyridine-2-carboxylate] are 3.63 and 3.54.

For `NNC(=O)c1cc(-c2ccc(OC(F)(F)F)cc2)cc(NC(=O)C2CC2)n1` [XXIV-1, N-{6-(Hydrazinocarbonyl)-4-[4-(trifluoromethoxy)phenyl]pyridin-2-yl}cyclopropanecarboxamide], the chromatographic logP in series [1] (setting [5]) turned out to be 2.57; in series [1] (setting [6]), 2.55. For `N#Cc1cc(-c2ccc(OC(F)(F)F)cc2)cc(NC(=O)C2CC2)n1` [XXIX-1, N-{6-Cyano-4-[4-(trifluoromethoxy)phenyl]pyridin-2-yl}cyclopropanecarboxamide], in that order: 3.85 and 3.89.
